Test results: the NIST ThermoML archive (doi:10.1021/je400539h)
“And” between values parts separate entries of the source, which are not always exact repeats. Equal entries are not always repeated.

How the values were obtained:
[1] = 101 kPa, Liquid
[2] = xn = mol fraction of the nth substance listed; details: 101 kPa, Liquid

C1COCCO1 [1,4-dioxane]
[1]
Details | mass density [kg/m3] | speed of sound [m/s] | viscosity [mPa·s]
298.15 K | 1028.2 | 1328 | 1.159
303.15 K | 1022.7 | 1320 | 1.087
308.15 K | 1017.4 | 1312 | 1.013
313.15 K | 1011.1 | 1304 | 0.934

C=COCCCC [1-(ethenyloxy)butane]
[1]
Details | mass density [kg/m3] | speed of sound [m/s] | viscosity [mPa·s]
298.15 K | 780.2 | 1096 | 0.4
303.15 K | 774.1 | 1084 | 0.387
308.15 K | 768.2 | 1072 | 0.365
313.15 K | 763.3 | 1060 | 0.354

COc1ccccc1 [anisole]
[1]
Details | mass density [kg/m3] | speed of sound [m/s] | viscosity [mPa·s]
298.15 K | 993.6 | 1396 | 0.97
303.15 K | 989.4 | 1380 | 0.917
308.15 K | 984.6 | 1364 | 0.863
313.15 K | 980 | 1348 | 0.803

CCCCCCOC(C)=O [hexyl ethanoate]
[1]
Details | mass density [kg/m3] | speed of sound [m/s] | viscosity
298.15 K | 868.3 | 1236 | 1.071 mPa·s
303.15 K | 863.9 | 1216 | 0.982 mPa·s
308.15 K | 859.8 | 1196 | 0.898 mPa·s and 0.899 mPa·s
313.15 K | 855 | 1176 | 0.836 mPa·s

CCCCCCOC(C)=O [hexyl ethanoate] + COc1ccccc1
[2]
Details | mass density [kg/m3] | speed of sound [m/s] | viscosity [mPa·s]
298.15 K, x1 = 0.0698 | 979.8 | 1376 | 1.022
298.15 K, x1 = 0.1417 | 969.7 | 1360 | 1.031
298.15 K, x1 = 0.221 | 959 | 1344 | 1.038
298.15 K, x1 = 0.3061 | 947.7 | 1328 | 1.047
298.15 K, x1 = 0.398 | 935.8 | 1312 | 1.054
298.15 K, x1 = 0.4979 | 923.4 | 1300 | 1.058
298.15 K, x1 = 0.606 | 910.5 | 1284 | 1.061
298.15 K, x1 = 0.7254 | 896.9 | 1268 | 1.065
298.15 K, x1 = 0.8556 | 882.9 | 1252 | 1.07
298.15 K, x1 = 1 | 868.3 | 1236 | 1.071
303.15 K, x1 = 0.0698 | 975 | 1360 | 0.932
303.15 K, x1 = 0.1417 | 964.7 | 1340 | 0.94
303.15 K, x1 = 0.221 | 953.8 | 1324 | 0.95
303.15 K, x1 = 0.3061 | 942.6 | 1304 | 0.959
303.15 K, x1 = 0.398 | 930.8 | 1288 | 0.967
303.15 K, x1 = 0.4979 | 918.4 | 1272 | 0.972
303.15 K, x1 = 0.606 | 905.5 | 1260 | 0.975
303.15 K, x1 = 0.7254 | 891.9 | 1244 | 0.98
303.15 K, x1 = 0.8556 | 878 | 1232 | 0.983
303.15 K, x1 = 1 | 863.9 | 1216 | 0.982
308.15 K, x1 = 0.0698 | 968.1 | 1340 | 0.86
308.15 K, x1 = 0.1417 | 957.8 | 1320 | 0.872
308.15 K, x1 = 0.221 | 947.1 | 1296 | 0.878
308.15 K, x1 = 0.3061 | 936.2 | 1280 | 0.886
308.15 K, x1 = 0.398 | 925 | 1264 | 0.894
308.15 K, x1 = 0.4979 | 913 | 1248 | 0.898
308.15 K, x1 = 0.606 | 900.3 | 1236 | 0.901
308.15 K, x1 = 0.7254 | 886.8 | 1224 | 0.903
308.15 K, x1 = 0.8556 | 873.1 | 1208 | 0.902
308.15 K, x1 = 1 | 859.8 | 1196 | 0.898
313.15 K, x1 = 0.0698 | 961.6 | 1320 | 0.779
313.15 K, x1 = 0.1417 | 951.2 | 1296 | 0.791
313.15 K, x1 = 0.221 | 940.5 | 1272 | 0.802
313.15 K, x1 = 0.3061 | 929.8 | 1252 | 0.811
313.15 K, x1 = 0.398 | 918.6 | 1236 | 0.823
313.15 K, x1 = 0.4979 | 906.8 | 1220 | 0.828
313.15 K, x1 = 0.606 | 894.4 | 1204 | 0.833
313.15 K, x1 = 0.7254 | 881.2 | 1192 | 0.838
313.15 K, x1 = 0.8556 | 867.8 | 1184 | 0.84
313.15 K, x1 = 1 | 855 | 1176 | 0.836

C1CCOC1 [tetrahydrofuran]
[1]
Details | mass density [kg/m3] | speed of sound [m/s] | viscosity [mPa·s]
298.15 K | 881.5 | 1268 | 0.45
303.15 K | 878.7 | 1248 | 0.439
308.15 K | 873 | 1228 | 0.429
313.15 K | 866.9 | 1212 | 0.404

C1CCOC1 [tetrahydrofuran] + CCCCCCOC(C)=O
[2], x2 = 0
Details | mass density [kg/m3] | speed of sound [m/s] | viscosity [mPa·s]
298.15 K | 881.5 | 1268 | 0.45
303.15 K | 878.7 | 1248 | 0.439
308.15 K | 873 | 1228 | 0.429
313.15 K | 866.9 | 1212 | 0.404
